Data from paper PMC11555678, “Improved Broad Spectrum Antifungal Drug Synergies with Cryptomycin, a Cdc50-Inspired Antifungal Peptide” (ACS Infectious Diseases, 2024).
Where two headings read alike, the source gives them in different places.

How the values were obtained:
C. neoformans Crm1^OE = experiment: microbe, parasite or virus in culture; assay type: cell-based, Cryptococcus neoformans; settings: Cryptococcus neoformans, 48 h
Method in brief: (§1)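 CLSI M27 yeast microdilution; RPMI1640; 2-fold serial dilution of drug (DMSO stock); inoculum 5000 cfu/mL from washed overnight YPD cultures; 37 °C, 2 d.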

C. neoformans H99 = experiment: microbe, parasite or virus in culture; assay type: cell-based, Cryptococcus neoformans; settings: Cryptococcus neoformans, H99; compound alone; RPMI1640, 37 °C, 48 h; read-out: MIC
Method in brief: as §1

C. neoformans MRL862 = experiment: microbe, parasite or virus in culture; assay type: cell-based, Cryptococcus neoformans; settings: RPMI1640, 37 °C, 48 h
Method in brief: as §1

C. neoformans apt1Δ = experiment: microbe, parasite or virus in culture; assay type: cell-based, Cryptococcus neoformans; settings: Cryptococcus neoformans, 48 h
Method in brief: as §1

C. neoformans apt2Δ = experiment: microbe, parasite or virus in culture; assay type: cell-based, Cryptococcus neoformans; settings: Cryptococcus neoformans, 48 h
Method in brief: as §1

C. neoformans apt3Δ = experiment: microbe, parasite or virus in culture; assay type: cell-based, Cryptococcus neoformans; settings: Cryptococcus neoformans, 48 h
Method in brief: as §1

C. neoformans apt4Δ = experiment: microbe, parasite or virus in culture; assay type: cell-based, Cryptococcus neoformans; settings: Cryptococcus neoformans, 48 h
Method in brief: as §1

C. neoformans cdc50Δ = experiment: microbe, parasite or virus in culture; assay type: cell-based, Cryptococcus neoformans; settings: Cryptococcus neoformans, 48 h
Method in brief: as §1

C. neoformans crm1Δ = experiment: microbe, parasite or virus in culture; assay type: cell-based, Cryptococcus neoformans; settings: Cryptococcus neoformans, 48 h
Method in brief: as §1

C. glabrata 2001 = experiment: microbe, parasite or virus in culture; assay type: cell-based, Candida glabrata; settings: Nakaseomyces glabratus, 2001; compound alone; RPMI1640, 37 °C, 48 h; read-out: MIC
Method in brief: as §1

C. glabrata FKS1-S629P = experiment: microbe, parasite or virus in culture; assay type: cell-based, Candida glabrata; settings: Nakaseomyces glabratus, FKS1S629P, 48 h
Method in brief: as §1

C. glabrata FKS2-S663P = experiment: microbe, parasite or virus in culture; assay type: cell-based, Candida glabrata; settings: Nakaseomyces glabratus, FKS2S663P, 48 h
Method in brief: as §1

C. albicans SC5413 [1] = experiment: microbe, parasite or virus in culture; assay type: cell-based, Candida albicans; settings: Candida albicans, SC5413; compound alone; RPMI1640, 37 °C, 48 h; read-out: MIC
Method in brief: as §1

C. auris B11245 [2] = experiment: microbe, parasite or virus in culture; assay type: cell-based, Candida auris
Procedure: (§2) All microdilution assays with fungi were carried out in accordance with CLSI protocols from M27 for yeasts and M38 for filamentous fungi, respectively, unless otherwise specified.[64],[65] Briefly, 96-well plates were charged with RPMI1640 media, with operating volume in the first column, 200 μL, and half operating volume, 100 μL, in the remaining wells. Drug stock solution in DMSO was aliquoted into the first well in each row. Half of the volume in the dosed well was serially diluted 2-fold until column 11. Column 11 was used as the negative growth control, and column 12 was used as the positive growth control. ON yeast cultures in YPD were washed twice in DD-H2O, resuspended in PBS, and adjusted to 5000 cfu/mL in RPMI. The 96-well plate was inoculated with 100 μL aliquots of cell suspension per well. Plates were incubated at 37 °C for 2 days.

A. fumigatus AF293 [3] = experiment: microbe, parasite or virus in culture; assay type: cell-based, Aspergillus fumigatus
Procedure: as §2

Cn MRL862 = assay type: cell-based, Cryptococcus neoformans; settings: RPMI1640, 37 °C, 48 h
Procedure: as §2
(§3) To assess drug synergy, the initial media charged to the plate contained the peptide at twice the final operating concentration; the remaining processing steps were identical to the MIC experiment. Upon addition of 100 μL of inoculant, the final operating concentration was achieved. Control MIC plates were prepared alongside drug synergy plates to account for the day-to-day variability in any individual MIC. FIC index is computed using eq 1. All MIC assays and drug synergy assays were completed with two technical replicates per 96-well plate and a minimum of two biological replicates per drug combination. If a difference in MIC between the two technical replicates on the plate were observed, only the higher concentration was reported as the MIC to reduce the possibility of type 1 error (false positive) [drawing 1] 1

C. albicans SC5413 [4] = assay type: cell-based, Candida albicans; settings: RPMI1640, 37 °C, 48 h; for MIC of antifungal in combination with KKOO: azole MICs unclear (intermediate phenotype); for MIC of antifungal in combination with KKOO-NH2: azole MICs could not be determined (intermediate phenotype)
Procedure: as §2, §3

C. auris B11245 [5] = assay type: cell-based, Candida auris; settings: RPMI1640, 37 °C, 48 h; for MIC of antifungal in combination with KKOO-NH2: MIC = well with <20% growth
Procedure: as §2, §3

A. fumigatus AF293 [6] = experiment: Drug synergy (MIC in peptide-supplemented media); assay type: cell-based, Aspergillus fumigatus; settings: RPMI1640, 37 °C, 48 h; for MIC of antifungal in combination with KKOO-NH2: MIC = well with <20% growth
Procedure: as §2, §3

[7] = compound alone, RPMI1640, 37 °C, 48 h, * = paradoxical growth observed (CAS)
[8] = +0 μg/mL KKOO (control), CAS: paradoxical growth, MIC = <20% growth
[9] = +0 μg/mL KKOO-NH2 (control), CAS: paradoxical growth
[10] = +1 μg/mL KKOO-NH2, CAS: paradoxical growth
[11] = +1 μg/mL KKOO, CAS: paradoxical growth, MIC = <20% growth
[12] = +2 μg/mL KKOO-NH2, CAS: paradoxical growth
[13] = +2 μg/mL KKOO, CAS: paradoxical growth, MIC = <20% growth
[14] = +4 μg/mL KKOO-NH2, CAS: paradoxical growth
[15] = +4 μg/mL KKOO, CAS: paradoxical growth, MIC = <20% growth

OC(Cn1cncn1)(Cn1cncn1)c1ccc(F)cc1F [FLC, fluconazole]
2 µg/mL: MIC (C. neoformans H99) | MIC (C. neoformans apt2Δ) | MIC (C. neoformans apt3Δ) | MIC (C. neoformans apt4Δ) | MIC (C. neoformans crm1Δ) | MIC (C. glabrata FKS1-S629P) | MIC (C. glabrata FKS2-S663P)
>16 µg/mL: MIC of antifungal in combination with KKOO-NH2 (C. albicans SC5413 [4]; +0 μg/mL KKOO-NH2 (control)) | MIC of antifungal in combination with KKOO-NH2 (C. albicans SC5413 [4]; +1 μg/mL KKOO-NH2) | MIC of antifungal in combination with KKOO-NH2 (C. albicans SC5413 [4]; +2 μg/mL KKOO-NH2) | MIC of antifungal in combination with KKOO-NH2 (C. albicans SC5413 [4]; +4 μg/mL KKOO-NH2)
> 128 µg/mL: MIC (C. auris B11245 [2]; Candidozyma auris, B11245, 48 h) | MIC (A. fumigatus AF293 [3]; Aspergillus fumigatus, AF293, 48 h) | MIC of antifungal in combination with KKOO (C. auris B11245 [5]; [8]) | MIC of antifungal in combination with KKOO (C. auris B11245 [5]; [11]) | MIC of antifungal in combination with KKOO (C. auris B11245 [5]; [13]) | MIC of antifungal in combination with KKOO (C. auris B11245 [5]; [15]) | MIC of antifungal in combination with KKOO (C. auris B11245 [5]; +8 μg/mL KKOO) | MIC of antifungal in combination with KKOO (A. fumigatus AF293 [6]; [8]) | MIC of antifungal in combination with KKOO (A. fumigatus AF293 [6]; [11]) | MIC of antifungal in combination with KKOO (A. fumigatus AF293 [6]; [13]) | MIC of antifungal in combination with KKOO (A. fumigatus AF293 [6]; [15]) | MIC of antifungal in combination with KKOO (A. fumigatus AF293 [6]; +8 μg/mL KKOO)
64 µg/mL: MIC of antifungal in combination with KKOO (Cn MRL862; +1 μg/mL KKOO)
>128 µg/mL: MIC (C. auris B11245 [2]; [7]) | MIC (A. fumigatus AF293 [3]; [7]) | MIC of antifungal in combination with KKOO-NH2 (C. auris B11245 [5]; [9]) | MIC of antifungal in combination with KKOO-NH2 (C. auris B11245 [5]; [10]) | MIC of antifungal in combination with KKOO-NH2 (C. auris B11245 [5]; [12]) | MIC of antifungal in combination with KKOO-NH2 (C. auris B11245 [5]; [14]) | MIC of antifungal in combination with KKOO-NH2 (A. fumigatus AF293 [6]; [9]) | MIC of antifungal in combination with KKOO-NH2 (A. fumigatus AF293 [6]; [10]) | MIC of antifungal in combination with KKOO-NH2 (A. fumigatus AF293 [6]; [12]) | MIC of antifungal in combination with KKOO-NH2 (A. fumigatus AF293 [6]; [14]) | MIC of antifungal in combination with KKOO-NH2 (A. fumigatus AF293 [6]; +8 μg/mL KKOO-NH2, CAS: paradoxical growth)
0.125 µg/mL: MIC (C. neoformans cdc50Δ) | MIC of antifungal in combination with KKOO (C. albicans SC5413 [4]; +8 μg/mL KKOO)
8 µg/mL: MIC (C. glabrata 2001)
32 µg/mL: MIC (C. neoformans MRL862; Cryptococcus neoformans, MRL862, compound alone, read-out: MIC) | MIC of antifungal in combination with KKOO (Cn MRL862; +0 μg/mL KKOO (control)) | MIC of antifungal in combination with KKOO-NH2 (Cn MRL862; +0 μg/mL KKOO-NH2 (control)) | MIC of antifungal in combination with KKOO-NH2 (Cn MRL862; +1 μg/mL KKOO-NH2) | MIC of antifungal in combination with KKOO-NH2 (Cn MRL862; +2 μg/mL KKOO-NH2) | MIC of antifungal in combination with KKOO (Cn MRL862; +2 μg/mL KKOO) | MIC of antifungal in combination with KKOO-NH2 (Cn MRL862; +4 μg/mL KKOO-NH2) | MIC of antifungal in combination with KKOO (Cn MRL862; +4 μg/mL KKOO)
0.5 µg/mL: MIC (C. neoformans apt1Δ)
16 fold: MIC relative to wild-type strain H99 (higher) (C. neoformans MRL862)
0.25 µg/mL: MIC (C. neoformans Crm1^OE)
> 16 µg/mL: MIC (C. albicans SC5413 [1]) | MIC of antifungal in combination with KKOO (C. albicans SC5413 [4]; +0 μg/mL KKOO (control)) | MIC of antifungal in combination with KKOO (C. albicans SC5413 [4]; +1 μg/mL KKOO) | MIC of antifungal in combination with KKOO (C. albicans SC5413 [4]; +2 μg/mL KKOO) | MIC of antifungal in combination with KKOO (C. albicans SC5413 [4]; +4 μg/mL KKOO)
